Results reported in patent publication US6451814B1, “Heterocyclic β-3 adrenergic receptor agonists” (Wyeth, priority 2000, dated 2002).
Where a name gives a salt, the structure may show the parent alone.

Columns and labels:
[1] = target: T1, human β3-adrenergic receptor (Homo sapiens, UniProt P13945); test: cAMP response (SPA kit) in CHO cells transfected with human β3 adrenergic receptor; assay type: cell-based; conditions: for EC50: CHO cells expressing human β3-AR, 10^-9 M to 10^-5 M, 30 min at 37° C., cAMP by SPA, read-out: EC50(β3); for IA(β3): maximal response of compound compared to maximal response of isoproterenol at 10^-5 M, CHO cells, human β3-AR
T1 construct: Full length β3 AR clones (402 amino acids) containing the last 6 amino acids of hβ3—AR are prepared; expressed in transfected cells; host or cells: CHO cells
T1 sequence (P13945 whole entry): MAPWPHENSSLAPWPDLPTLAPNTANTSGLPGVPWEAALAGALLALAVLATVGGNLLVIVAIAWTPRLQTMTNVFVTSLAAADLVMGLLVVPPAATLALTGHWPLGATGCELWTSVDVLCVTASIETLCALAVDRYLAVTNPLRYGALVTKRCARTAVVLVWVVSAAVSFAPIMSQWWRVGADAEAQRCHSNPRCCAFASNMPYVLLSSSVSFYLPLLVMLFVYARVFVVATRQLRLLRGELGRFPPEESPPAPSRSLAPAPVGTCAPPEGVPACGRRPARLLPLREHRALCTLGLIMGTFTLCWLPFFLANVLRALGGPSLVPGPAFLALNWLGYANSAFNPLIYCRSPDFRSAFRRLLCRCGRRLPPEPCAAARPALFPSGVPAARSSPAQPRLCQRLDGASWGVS

| melting point [°C] | EC50 [1] [nM] | IA(β3) [1] | Structure (SMILES) |
| --- | --- | --- | --- |
| 89 to 95 | 40 | 0.84 | O=C(NCc1cc(F)cc(F)c1)N1CCC(Nc2ccc(CCNC[C@H](O)COc3ccc(O)cc3)cc2)CC1 [Example 24, 4-(4-{2-[(2S)-2-Hydroxy-3-(4-hydroxy-phenoxy)-propylamino]-ethyl}-phenylamino)-piperidine-1-carboxylic Acid 3,5-difluoro-benzylamide] |
| 181 to 195 | 620 | 0.84 | CCCCCCNC(=O)N1CCC(Sc2ccc(CCNC[C@H](O)COc3ccc(O)cc3)cc2)CC1 [Example 41, N-hexyl-4-{[4-(2-{[(2S)-2-hydroxy-3-(4-hydroxyphenoxy)propyl]amino}ethyl)phenyl]sulfanyl}-1-piperidinecarboxamide] |
| 135 to 144 | 127 | 0.79 | Cc1ccsc1C(=O)N1CCC(Sc2ccc(CCNC[C@H](O)COc3ccc(O)cc3)cc2)CC1 [Example 106, [4-(4-{2-[(2S)-2-Hydroxy-3-(4-hydroxy-phenoxy)-propylamino]-ethyl}-phenylsulfanyl)-piperidin-1-yl]-(3-methyl-thiophen-2-yl)-methanone] |
| 89 to 94 | 66 | 0.82 | O=C(NCC(F)(F)F)N1CCC(Nc2ccc(CCNC[C@H](O)COc3ccc(O)cc3)cc2)CC1 [Example 13, 4-(4-{2-[(2S)-2-Hydroxy-3-(4-hydroxy-phenoxy)-propylamino]-ethyl}-phenylamino)-piperidine-1-carboxylic Acid (2,2,2-trifluoro-ethyl)-amide] |
| 67 to 69 | 140 | 0.94 | COc1cc(OCCCOc2ccccc2)ccc1CCNC(=O)N1CCC(Nc2ccc(CCNC[C@H](O)COc3ccc(O)cc3)cc2)CC1 [Example 71, 4-(4-{2-[(2S)-2-Hydroxy-3-(4-hydroU-phenoxy)-propylamino]-ethyl}-phenylamino)-piperidine-1-carboxylic Acid {2-[2-methoxy-4-(3-phenoxy-propoxy)-phenyl]-ethyl}-amide] |
| 61 to 65 | 542 | 1 | CCCCCCCCNC(=O)N1CCC(Nc2ccc(CCNC[C@H](O)COc3ccc(O)cc3Cl)cc2)CC1 [Example 16, 4-[4-(2-{[(2S)-3-(2-Chloro-4-hydroxyphenoxy)-2-hydroxypropyl]amino}ethyl)anilino]-N-octyl-1-piperidinecarboxamide] |
| 134 to 136 | 1 | 1.1 | CCCCCCCCNC(=O)Nc1ccc(S(=O)(=O)N2CCC(Nc3ccc(CCNC[C@H](O)c4ccc(O)c(NS(C)(=O)=O)c4)cc3)CC2)cc1 [Example 116, N-(2-Hydroxy-5-{(1R)-1-hydroxy-2-[2-(4-{1-[4-(3-octyl-ureido)-benzenesulfonyl]-piperidin-4-ylamino}-phenyl)-ethylamino]-ethyl}-phenyl)-methanesulfonamide] |
| 60 to 62 | 90 | 0.69 | O=C(OCc1ccc(F)cc1)N1CCC(Nc2ccc(CCNC[C@H](O)COc3ccc(O)cc3)cc2)CC1 [Example 121, 4-(4-{2-[(2S)-2-Hydroxy-3-(4-hydroxy-phenoxy)-propylamino]-ethyl}-phenylamino)-piperidine-1-carboxylic acid 4-fluoro-benzyl Ester] |
| 79 to 84 | – | 0.91 | O=C(NCc1ccccc1F)N1CCC(Nc2ccc(CCNC[C@H](O)COc3ccc(O)cc3)cc2)CC1 [Example 26, 4-(4-{2-[(2S)-2-Hydroxy-3-(4-hydroxy-phenoxy)-propylamino]-ethyl}-phenylamino)-piperidine-1-carboxylic Acid 2-fluoro-benzylamide] |
| 116 to 118 | – | 1 | CS(=O)(=O)Nc1cc([C@@H](O)CNCCc2ccc(NC3CCN(C(=O)NCc4cc(F)ccc4F)CC3)cc2)ccc1O [Example 76, 4-(4-{2-[(2R)-2-Hydroxy-2-(4-hydroxY-3-methanesulfonylamino-phenyl)-ethylamino]-ethyl}-phenylamino)-piperidine-1-carboxylic Acid 2,5-difluoro-benzylamide] |
| 60 to 62 | 300 | 0.57 | CCCCCCCCNC(=O)N1CCC(Nc2ccc(CCNC[C@H](O)COc3ccc(O)c(F)c3)cc2)CC1 [Example 65, 4-(4-{2-[(2S)-3-(3-Fluoro-4-hydroxy-phenoxy)-2-hydroxy-propylamino]-ethyl}-phenylamino)-piperidine-1-carboxylic Acid Octylamide] |
| 57 to 59 | 74 | 0.9 | CCCCCC(=O)N1CCC(Nc2ccc(CCNC[C@H](O)COc3ccc(O)cc3)cc2)CC1 [Example 103, 1-[4-(4-{2-[(2S)-2-Hydroxy-3-(4-hydroxy-phenoxy)-propylamino]-ethyl}-phenylamino)-piperidin-1-yl]-hexan-1-one] |
| 132 | 390 | 0.81 | O=C(NCC1(c2ccccc2)CCCC1)N1CCC(Sc2ccc(CCNC[C@H](O)COc3ccc(O)cc3)cc2)CC1 [Example 43, 4-(4-{2-[(2S)-2-Hydroxy-3-(4-hydroxy-phenoxy)-propylamino]-ethyl}-phenylsulfanyl)-piperidine-1-carboxylic Acid (1-phenyl-cyclopentylmethyl)-amide] |
| 89 to 91 | – | – | O=C(NCc1ccc(F)cc1)N1CCC(Nc2ccc(CCNC[C@H](O)COc3ccc(O)cc3)cc2)CC1 (as salt: salt) [Example 1, 4-(4-{2-[(2S)-2-Hydroxy-3-(4-hydroxy-phenoxy)-propylamino]-ethyl}-phenylamino)-piperidine-1-carboxylic Acid 4-fluoro-benzylamide] |
| 72 to 77 | – | – | CNC(=O)N1CCC(Nc2ccc(CCNC[C@H](O)COc3ccc(O)cc3)cc2)CC1 (as salt: salt) [Example 9, 4-(4-{2-[(2S)-2-Hydroxy-3-(4-hydroxy-phenoxy)-propylamino]-ethyl}-phenylamino)-piperidine-1-carboxylic Acid Methylamide] |
| 168 to 171 | – | – | CCCCCCCCNC(=O)N1CCC(Nc2ccc(CCNC[C@H](O)c3cccc(Cl)c3)cc2)CC1 (as salt: salt) [Example 36, 4-(4-{2-[(2R)-2-(3-Chloro-phenyl)-2-hydroxy-ethylamino]-ethyl}-phenylamino)-piperidine-1-carboxylic Acid Octylamide] |
| 96 to 98 | – | – | COc1c(C(=O)N2CCC(Nc3ccc(CCNC[C@H](O)COc4cccc(NC(C)=O)c4)cc3)CC2)sc2ccccc12 (as salt: salt) [Example 98, N-{3-[(2S)-2-Hydroxy-3-(2-{4-[1-(3-methoxy-benzo[b]thiophene-2-carbonyl)-piperidin-4-ylamino]-phenyl}-ethylamino)-propoxy]-phenyl}-acetamide] |
| 77 to 86 | – | – | O=C(NC1CCCCC1)N1CCC(Nc2ccc(CCNC[C@H](O)COc3ccc(O)cc3)cc2)CC1 (as salt: salt) [Example 2] |
| 73 to 74 | – | – | CCCCCCCCNC(=O)N1CCC(Nc2ccc(CCNC[C@H](O)COc3cccc(NC(C)=O)c3)cc2)CC1 [Example 63, 4-(4-{2-[(2S)-3-(3-Acetylamino-phenoxy)-2-hydroxy-propylamino]-ethyl}-phenylamino)-piperidine-1-carboxylic Acid Octylamide] |
| 134 to 138 | – | – | CCCCCCCCNC(=O)N1CCC(Nc2ccc(CCNC[C@H](O)COc3ccc(N)nc3)cc2)CC1 (as salt: salt) [Example 5, 4-(4-{2-[(2S)-3-(6-Amino-pyridin-3-yloxy)-2-hydroxy-propylamino]-ethyl}-phenylamino)-piperidine-1-carboxylic Acid Octylamide] |
| 175 | – | – | O=C(O)COc1ccc(NC(=O)N2CCC(Nc3ccc(CCNC[C@H](O)COc4ccc(O)cc4)cc3)CC2)cc1 (as salt: salt) [Example 58, (4-{[4-(4-{2-[(2S)-2-Hydroxy-3-(4-hydroxy-phenoxy)-propylamino]-ethyl}-phenylamino)-piperidine-1-carbonyl]-amino}-phenoxy)-acetic Acid] |
| 88 to 90 | – | – | Cc1ccsc1C(=O)N1CCC(Nc2ccc(CCNC[C@H](O)COc3ccc(O)cc3)cc2)CC1 (as salt: salt) [Example 100, [4-(4-{2-[(2S)-2-Hydroxy-3-(4-hydroxy-phenoxy)-propylamino]-ethyl}-phenylamino)-piperidin-1-yl]-(3-methyl-thiophen-2-yl)-methanone] |
| 98 to 104 | – | – | CC(=O)Nc1ccc(S(=O)(=O)N2CCC(Nc3ccc(CCNC[C@H](O)COc4ccc(O)cc4)cc3)CC2)cc1 (as salt: salt) [Example 114, N-{4-[4-(4-{2-[(2S)-2-Hydroxy-3-(4-hydroxy-phenoxy)-propylamino]-ethyl}-phenylamino)-piperidine-1-sulfonyl]-phenyl}-acetamide] |
| 80 to 82 | – | – | Oc1ccc(OC[C@@H](O)CNCCc2ccc(NC3CCN(c4nc(-c5ccccc5)cs4)CC3)cc2)cc1 (as salt: hydrochloride) [Example 117, 4-[(2S)-2-Hydroxy-3-(2-{4-[1l-(4-phenyl-thiazol-2-yl)-piperidin-4-ylamino]-phenyl}-ethylamino)-propoxy]-phenol] |
| 115 to 117 | – | – | CCCCCCCCNC(=O)N1CCC(Nc2ccc(CCNC[C@H](O)COc3ccc(O)c(NS(C)(=O)=O)c3)cc2)CC1 (as salt: salt) [Example 66, 4-(4-{2-[(2S)-2-Hydroxy-3-(4-hydroxy-3-methanesulfonylamino-phenoxy)-propylamino]-ethyl}-phenylamino)-piperidine-1-carboxylic Acidoctylamide] |
| 160 to 162 | – | – | O=C(NCc1ccc(F)cc1)N1CCC(Oc2ccc(CCNC[C@H](O)COc3ccc(O)cc3)cc2)CC1 (as salt: salt) [Example 56, 4-(4-{2-[(2S)2-Hydroxy-3-(4-hydroxy-phenoxy)-propylamino]-ethyl}-phenoxy)-piperidine-1-carboxylic Acid 4-fluoro-benzylamide] |
